Among the data in patent US20190127314A1, “HOMOVANILLIC ACID ESTER FOR REDUCING OR INHIBITING FATTY ACID ABSORPTION IN THE SMALL INTESTINE” (SYMRISE AG, priority 2016, published 2019) are activity values, retold here.

Molecules are shown by their SMILES.

For the test, the system named is differentiated Caco-2-cells. The test is described as follows: Intestinal fatty acid resorption, QBT Fatty Acid Uptake Kit (BODIPY-dodecanoic acid). The format is cell-based. As to conditions: Homo sapiens, fatty acid resorption AUC as percent of the vehicle treated control, 30 min preincubation, fluorescence measured over 1 h; for activity at 1 µM: 1 μM substance; for activity at 100 µM: 100 μM substance. An excerpt:
The ability of modulating the fatty acid resorption/absorption (as described in the scope of the present invention) of a substance or substance mixture can be determined or, respectively, evaluated e.g. according to the method described herein, by using Caco-2-cells (s. also the example section of the present text). Preferably, in the scope of the present text it is to be assumed that substances reducing or, respectively, inhibiting the fatty acid resorption (preferably when performing the method described herein, s. example section) are also suitable for the uses or, respectively, applications according to the invention and described herein. Preferably, the human colon cell line Caco-2 (ATCC-number HTB-37) is used, after differentiation to a phenotype related to entereocytes, as cell model for the resorption of free fatty acids into the small intestine. (Caco-2-cells are preferably cultivated at 37° C. and 5% CO2 content with Dulbecco's Modified Eagles Medium (DMEM) with 10% FBS, 2% L-Glutamine and 1% Penicillin/Streptomycin. The differentiation to enterocytes is preferably performed by an 18-days cultivation of the cells after reaching confluence.)
The resorption of free fatty acids in differentiated Caco-2-cells was analysed with the QBT Fatty Acid Uptake Kit (Molecular Devices Corporation, Germany), which uses the fluorescent fatty acid analogue BODIPY-dodecanoic acid. For preparing the assay, the differentiated Caco-2-cells are subjected to a one hour incubation in serum-free medium at standard cell culture conditions of a hunger phase. Subsequently, the test substances were added at 1 or 100 μM, diluted in Hank's balanced salt solution (HBSS of Lonza, Biozym-order number 882010)-buffer, treated with 20 mM HEPES (diluted from a 1M solution of Gibco, Thermo Fisher-order number 15630056) (in the following described as HBSS/HEPES-buffer). Controls were only treated with HBSS/HEPES-buffer. After a 30 minute preincubation at 37° C., the fluorescent fatty acid analogue was added, which was diluted in HBSS/HEPES-buffer (supplemented with 0.2% fatty acid free BSA [Sigma Aldrich, Germany]). The fluorescence signals were measured after excitation with 485 nm at an emission wavelength of 515 nm during a time of 1 h in a microtiter plate-reader (Synergy; BioTek, Germany). Starting from a time-signal-intensity curve resulting from the measurement, the area under the curve (AUC) was calculated to determine the cellular fatty acid resorption after treatment with the substances. The results obtained thereby are indicated as percent related to the control treatment (s. table 1).
Table 1: Results of the measurement of the inhibition of the fatty acid resorption in Caco-2-cells. The calculated area under the curve (AUC) is shown for tests at each 1 and 100 μM substance used (as percent of the vehicle treated control).
With the test for measurement shown in example 2, in total 25 compounds of formula (I) (as described herein) were measured for their inhibitory activity regarding the fatty acid resorption in Caco-2-cells for each two concentrations (1 and 100 μM) in triple determination. The obtained activity data was subsequently used for a structure-effect-analysis by using the software-package StarDrop (Optibrium Ltd) and Vortex (Dotmatics Ltd.). Thereby, an R-group analysis with the basic structure according to formula (II) was performed.

In the case of `COc1cc(CC(=O)OCCc2ccccc2)ccc1O` [Compound 1, 2-Phenylethyl-2-(4-hydroxy-3-methoxy-phenyl)acetate], the activity at 1 µM amounted to 103% and the activity at 100 µM was 103%.

For the compound `COc1cc(CC(=O)OC/C=C/c2ccccc2)ccc1O` [Compound 2, [(E)-Cinnamyl]-2-(4-hydroxy-3-methoxy-phenyl)acetate], the activity at 1 µM turned out to be 97.6% and the activity at 100 µM worked out at 94.6%.

`CCCC(CC)OC(=O)Cc1ccc(O)c(OC)c1` (stereo not drawn) [Compound 3, 1-Ethylbutyl-2-(4-hydroxy-3-methoxy-phenyl)acetate]: the activity at 1 µM was found to be 87.1% and the activity at 100 µM was determined as 62.5%.

In the case of `COc1cc(CC(=O)OCC=C(C)C)ccc1O` [Compound 4, 3-Methylbut-2-enyl-2-(4-hydroxy-3-methoxy-phenyl)acetate], the activity at 1 µM is 101% and the activity at 100 µM turned out to be 80.9%.

In the case of `CCC/C=C/COC(=O)Cc1ccc(O)c(OC)c1` [Compound 5, [(E)-Hex-2-enyl]-2-(4-hydroxy-3-methoxy-phenyl)acetate], the activity at 1 µM is 101% and the activity at 100 µM is 96.5%.

Take `CC/C=C\CCOC(=O)Cc1ccc(O)c(OC)c1` [Compound 6, [(Z)-Hex-3-enyl]-2-(4-hydroxy-3-methoxy-phenyl)acetate]: the activity at 1 µM came to 99.9% and the activity at 100 µM was determined as 90.4%.

In the case of `COc1cc(CC(=O)OC(C)C)ccc1O` [Compound 7, Isopropyl-2-(4-hydroxy-3-methoxy-phenyl)acetate], the activity at 1 µM was found to be 91.6% and the activity at 100 µM came to 61.6%.

For the compound `CCC(C)OC(=O)Cc1ccc(O)c(OC)c1` (stereo not drawn) [Compound 8, sec-Butyl-2-(4-hydroxy-3-methoxy-phenyl)acetate], the activity at 1 µM is 92% and the activity at 100 µM was 61.9%.

Consider `COc1cc(CC(=O)OCC(C)C)ccc1O` [Compound 9, Isobutyl-2-(4-hydroxy-3-methoxy-phenyl)acetate], for which the activity at 1 µM came out at 100% and the activity at 100 µM amounted to 68%.

With `COc1cc(CC(=O)OCCC(C)C)ccc1O` [Compound 10, Isopentyl-2-(4-hydroxy-3-methoxy-phenyl)acetate], the activity at 1 µM was 99.8% and the activity at 100 µM came to 82.7%.

In the case of `CCC(C)COC(=O)Cc1ccc(O)c(OC)c1` (stereo not drawn) [Compound 11, 2-Methylbutyl-2-(4-hydroxy-3-methoxy-phenyl)acetate], the activity at 1 µM worked out at 99% and the activity at 100 µM was 79%.

As to `CCCCC(C)OC(=O)Cc1ccc(O)c(OC)c1` (stereo not drawn) [Compound 12, 1-Methylpentyl-2-(4-hydroxy-3-methoxy-phenyl)acetate], the activity at 1 µM came out at 89.5% and the activity at 100 µM is 53.3%.

As to `CCCCCCCOC(=O)Cc1ccc(O)c(OC)c1` [Compound 13, Heptyl-2-(4-hydroxy-3-methoxy-phenyl)acetate], the activity at 1 µM was 103% and the activity at 100 µM came to 92.7%.

Consider `CCCCCC(C)OC(=O)Cc1ccc(O)c(OC)c1` (stereo not drawn) [Compound 14, 1-Methyl hexyl-2-(4-hydroxy-3-methoxy-phenyl)acetate], for which the activity at 1 µM came out at 93.4% and the activity at 100 µM worked out at 67.5%.

As for `COc1cc(CC(=O)O[C@@H]2C[C@H](C)CC[C@H]2C(C)C)ccc1O` [Compound 15, (2-Isopropyl-5-methyl-cyclohexyl)-2-(4-hydroxy-3-methoxy-phenyl)acetate], the activity at 1 µM amounted to 95.5% and the activity at 100 µM is 58.1%.

On to `CCOC(=O)Cc1ccc(O)c(OC)c1` [Compound 16, Ethyl-2-(4-hydroxy-3-methoxy-phenyl)acetate], for which the activity at 1 µM amounted to 105% and the activity at 100 µM came out at 93.8%.

Turning to `CCCOC(=O)Cc1ccc(O)c(OC)c1` [Compound 17, Propyl-2-(4-hydroxy-3-methoxy-phenyl)acetate], the activity at 1 µM is 101% and the activity at 100 µM stood at 89.7%.

Take `CCCCOC(=O)Cc1ccc(O)c(OC)c1` [Compound 18, Butyl-2-(4-hydroxy-3-methoxy-phenyl)acetate]: the activity at 1 µM turned out to be 102% and the activity at 100 µM is 90.7%.

With `CCCCCOC(=O)Cc1ccc(O)c(OC)c1` [Compound 19, Pentyl-2-(4-hydroxy-3-methoxy-phenyl)acetate], the activity at 1 µM came to 101% and the activity at 100 µM came to 92.9%.

For the compound `CCCCCCOC(=O)Cc1ccc(O)c(OC)c1` [Compound 20, Hexyl-2-(4-hydroxy-3-methoxy-phenyl)acetate], the activity at 1 µM was 102% and the activity at 100 µM is 91.4%.

As for `CCC(CC)COC(=O)Cc1ccc(O)c(OC)c1` [Compound 23, 2-Ethylbutyl-2-(4-hydroxy-3-methoxy-phenyl)acetate], the activity at 1 µM was determined as 99.7% and the activity at 100 µM came out at 62.1%.
